Target: T1, pY705-STAT3 in PBMC (Homo sapiens, UniProt P40763)
T1 construct: Cryopreserved Peripheral Blood Mononuclear Cells (PBMC) are from AllCells; host or cells: cryopreserved PBMC
Assay: MSD-pSTAT-PBMC Assay (pSTAT3, IL-6 stimulated)
Assay type: cell-based
Details: PBMC, compound 3 hrs, then 10 ng/mL IL-6 for 10 min; Table 115; read-out: STAT3
How it was run: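 Human PBMCs were pretreated with compound for 3 h, then stimulated with 10 ng/mL IL-6 for 10 min. Lysate pY705-STAT3 was measured by MSD sandwich immunoassay (anti-STAT3 capture) and corrected for unstimulated background. Signal was normalized to DMSO, and IC50 came from variable-slope regression.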

T1 sequence (P40763 whole entry): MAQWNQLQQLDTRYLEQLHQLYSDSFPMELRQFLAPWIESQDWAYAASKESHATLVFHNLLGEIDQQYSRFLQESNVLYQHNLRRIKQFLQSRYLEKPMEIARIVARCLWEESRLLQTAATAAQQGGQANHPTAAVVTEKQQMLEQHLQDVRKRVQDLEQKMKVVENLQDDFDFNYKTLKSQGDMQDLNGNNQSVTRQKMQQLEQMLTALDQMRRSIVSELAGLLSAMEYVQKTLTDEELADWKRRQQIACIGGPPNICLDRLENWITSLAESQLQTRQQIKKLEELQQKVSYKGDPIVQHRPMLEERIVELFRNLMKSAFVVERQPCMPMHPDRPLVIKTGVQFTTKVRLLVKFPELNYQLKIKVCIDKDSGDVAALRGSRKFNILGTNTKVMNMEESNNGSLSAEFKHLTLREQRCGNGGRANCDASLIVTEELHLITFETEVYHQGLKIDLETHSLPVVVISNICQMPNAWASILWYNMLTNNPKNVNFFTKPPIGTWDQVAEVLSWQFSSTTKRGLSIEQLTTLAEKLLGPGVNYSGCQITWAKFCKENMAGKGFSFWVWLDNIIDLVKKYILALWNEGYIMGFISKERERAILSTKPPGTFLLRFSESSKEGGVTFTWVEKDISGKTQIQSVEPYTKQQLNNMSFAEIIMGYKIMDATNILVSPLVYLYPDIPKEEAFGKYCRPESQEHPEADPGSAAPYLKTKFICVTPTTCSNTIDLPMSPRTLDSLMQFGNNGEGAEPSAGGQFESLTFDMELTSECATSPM

Structure (SMILES)	IC50
COC1(c2cnccc2C)CN(C(=O)[C@@H]2CC[C@@H]3CCC[C@H](NC(=O)c4cc5cc(C(F)(F)P(=O)(OCCSC(=O)CC(C)C)OCCSC(=O)CC(C)C)ccc5s4)C(=O)N32)C1 [Compound 963, S,S′-((((difluoro(2-(((3S,6S,9aS)-3-(3-methoxy-3-(4-methylpyridin-3-yl)azetidine-1-carbonyl)-5-oxooctahydro-1H-pyrrolo[1,2-a]azepin-6-yl)carbamoyl)benzo [b]thiophen-5-yl)methyl)phosphoryl)bis(oxy))bis(ethane-2,1-diyl)) bis(3-methylbutanethioate)]	100 to 1000 nM
CCCC(=O)SCCOP(=O)(OCCSC(=O)CCC)C(F)(F)c1ccc2sc(C(=O)N[C@H]3CCC[C@H]4CC[C@@H](C(=O)N5CC(c6nncn6C)C5)N4C3=O)cc2c1 [Compound 964, S,S′-((((difluoro(2-(((3S,6S,9aS)-3-(3-(4-methyl-4H-1,2,4-triazol-3-yl)azetidine-1-carbonyl)-5-oxooctahydro-1H-pyrrolo[1,2-a]azepin-6-yl)carbamoyl)benzo [b]thiophen-5-yl)methyl)phosphoryl)bis(oxy))bis(ethane-2,1-diyl)) dibutanethioate]	100 to 1000 nM
CC(C)OC(=O)OCOP(=O)(Cc1ccc2[nH]c(C(=O)N[C@H]3CCC[C@H]4CC[C@@H](C(=O)N5CC(c6cccnc6)C5)N4C3=O)cc2c1)OCOC(=O)OC(C)C [Compound 965, diisopropyl (((((2-(((3S,6S,9aS)-5-oxo-3-(3-(pyridin-3-yl)azetidine-1-carbonyl)octahydro-1H-pyrrolo[1,2-a]azepin-6-yl)carbamoyl)-1H-indol-5-yl)methyl)phosphoryl)bis(oxy))bis (methylene)) bis(carbonate)]	100 to 1000 nM
CC(C)CC(=O)SCCOP(=O)(OCCSC(=O)CC(C)C)C(F)(F)c1ccc2sc(C(=O)N[C@H]3CCC[C@H]4CC[C@@H](C(=O)N5CC(c6nncn6C)C5)N4C3=O)cc2c1 [Compound 966, S,S′-((((difluoro(2-(((3S,6S,9aS)-3-(3-(4-methyl-4H-1,2,4-triazol-3-yl)azetidine-1-carbonyl)-5-oxooctahydro-1H-pyrrolo[1,2-a]azepin-6-yl)carbamoyl)benzo [b]thiophen-5-yl)methyl)phosphoryl)bis(oxy))bis(ethane-2,1-diyl)) bis(3-methylbutanethioate)]	< 100 nM
Cn1cnnc1C1CN(C(=O)[C@@H]2CC[C@@H]3CCC[C@H](NC(=O)c4cc5cc(C(F)(F)P(=O)(OCCSC(=O)C(C)(C)C)OCCSC(=O)C(C)(C)C)ccc5s4)C(=O)N32)C1 [Compound 967, S,S′-((((difluoro(2-(((3S,6S,9aS)-3-(3-(4-methyl-4H-1,2,4-triazol-3-yl)azetidine-1-carbonyl)-5-oxooctahydro-1H-pyrrolo[1,2-a]azepin-6-yl)carbamoyl)benzo [b]thiophen-5-yl)methyl)phosphoryl)bis(oxy))bis(ethane-2,1-diyl)) bis(2,2-dimethyl-propanethioate)]	< 100 nM
Cc1ccncc1C1CN(C(=O)[C@@H]2CC[C@@H]3CCC[C@H](NC(=O)c4cc5cc(C(F)(F)P(=O)(OCCSC(=O)C(C)(C)C)OCCSC(=O)C(C)(C)C)ccc5s4)C(=O)N32)C1 [Compound 968, S,S′-((((difluoro(2-(((3S,6S,9aS)-3-(3-(4-methylpyridin-3-yl)azetidine-1-carbonyl)-5-oxooctahydro-1H-pyrrolo[1,2-a]azepin-6-yl)carbamoyl)benzo [b]thiophen-5-yl)methyl)phosphoryl)bis(oxy))bis(ethane-2,1-diyl))bis(2,2-dimethyl-propanethioate)]	< 100 nM
CCCCOC(=O)[C@@H]1CCCN1P(=O)(Oc1ccccc1)C(F)(F)c1ccc2sc(C(=O)N[C@H]3CCC[C@H]4CC[C@@H](C(=O)N5CC(c6cccnc6)C5)N4C3=O)cc2c1 (stereo partly drawn) [Compound 969, butyl ((difluoro(2-(((3S,6S,9aS)-5-oxo-3-(3-(pyridin-3-yl)azetidine-1-carbonyl)octahydro-1H-pyrrolo[1,2-a]azepin-6-yl)carbamoyl)benzo [b]thiophen-5-yl)methyl)(phenoxy)phosphoryl)-L-prolinate]	> 3000 nM
O=C(SCCOP(=O)(OCCSC(=O)c1ccccc1)C(F)(F)c1ccc2sc(C(=O)N[C@H]3CCC[C@H]4CC[C@@H](C(=O)N5CC(c6cccnc6)C5)N4C3=O)cc2c1)c1ccccc1 [Compound 970, S,S′-((((difluoro(2-(((3S,6S,9aS)-5-oxo-3-(3-(pyridin-3-yl)azetidine-1-carbonyl)octahydro-1H-pyrrolo[1,2-a]azepin-6-yl)carbamoyl)benzo [b]thiophen-5-yl)methyl)-phosphoryl)bis(oxy))bis(ethane-2,1-diyl)) dibenzothioate]	< 100 nM
CCCCOC(=O)[C@H](C)NP(=O)(Oc1cccc2ccccc12)C(F)(F)c1ccc2sc(C(=O)N[C@H]3CCC[C@H]4CC[C@@H](C(=O)N5CC(c6cccnc6)C5)N4C3=O)cc2c1 (stereo partly drawn) [Compound 971, butyl ((difluoro(2-(((3S,6S,9aS)-5-oxo-3-(3-(pyridin-3-yl)azetidine-1-carbonyl)octahydro-1H-pyrrolo[1,2-a]azepin-6-yl)carbamoyl)benzo [b]thiophen-5-yl)methyl) (naphthalen-1-yloxy)phosphoryl)-L-alaninate]	1000 to 3000 nM
CC(C)OC(=O)[C@H](C)NP(=O)(Oc1ccccc1)C(F)c1ccc2sc(C(=O)N[C@H]3CCC[C@H]4CC[C@@H](C(=O)N5CC(c6cnccc6F)C5)N4C3=O)cc2c1 (stereo partly drawn) [Compound 972, isopropyl ((fluoro(2-(((3S,6S,9aS)-3-(3-(4-fluoropyridin-3-yl)azetidine-1-carbonyl)-5-oxooctahydro-1H-pyrrolo[1,2-a]azepin-6-yl)carbamoyl)benzo [b]thiophen-5-yl)methyl) (phenoxy)phosphoryl)-L-alaninate]	< 100 nM
CCCOC(=O)[C@H](C)NP(=O)(Oc1ccccc1)C(F)c1ccc2sc(C(=O)N[C@H]3CCC[C@H]4CC[C@@H](C(=O)N5CC(c6cnccc6O)C5)N4C3=O)cc2c1 (stereo partly drawn) [Compound 974, propyl ((fluoro(2-(((3S,6S,9aS)-3-(3-(4-hydroxypyridin-3-yl)azetidine-1-carbonyl)-5-oxooctahydro-1H-pyrrolo[1,2-a]azepin-6-yl)carbamoyl)benzo [b]thiophen-5-yl)methyl)(phenoxy)phosphoryl)-L-alaninate]	100 to 1000 nM
CCCOC(=O)[C@H](C)NP(=O)(Cc1ccc2sc(C(=O)N[C@H]3CCC[C@H]4CC[C@@H](C(=O)N5CC(c6cnccc6O)C5)N4C3=O)cc2c1)Oc1ccccc1 (stereo partly drawn) [Compound 975, propyl (((2-(((3S,6S,9aS)-3-(3-(4-hydroxypyridin-3-yl)azetidine-1-carbonyl)-5-oxooctahydro-1H-pyrrolo[1,2-a]azepin-6-yl)carbamoyl)benzo [b]thiophen-5-yl)methyl)(phenoxy)phosphoryl)-L-alaninate]	< 100 nM
CCCOC(=O)[C@H](C)NP(=O)(Cc1ccc2sc(C(=O)N[C@H]3CCC[C@H]4CC[C@@H](C(=O)N5CC(c6c(F)ccnc6C)C5)N4C3=O)cc2c1)Oc1ccccc1 (stereo partly drawn) [Compound 978, propyl (((2-(((3S,6S,9aS)-3-(3-(4-fluoro-2-methylpyridin-3-yl)azetidine-1-carbonyl)-5-oxooctahydro-1H-pyrrolo[1,2-a]azepin-6-yl)carbamoyl)benzo [b]thiophen-5-yl)methyl)(phenoxy)phosphoryl)-L-alaninate]	100 to 1000 nM
CCCOC(=O)[C@H](C)NP(=O)(Cc1ccc2sc(C(=O)N[C@H]3CCC[C@H]4CC[C@@H](C(=O)N5CC(c6cn(C)ccc6=O)C5)N4C3=O)cc2c1)Oc1ccccc1 (stereo partly drawn) [Compound 979, propyl (((2-(((3S,6S,9aS)-3-(3-(1-methyl-4-oxo-1,4-dihydropyridin-3-yl)azetidine-1-carbonyl)-5-oxooctahydro-1H-pyrrolo[1,2-a]azepin-6-yl)carbamoyl)benzo [b]thiophen-5-yl)methyl)(phenoxy)phosphoryl)-L-alaninate]	> 3000 nM
CCCOC(=O)[C@H](C)NP(=O)(Cc1ccc2sc(C(=O)N[C@H]3CCC[C@H]4CC[C@@H](C(=O)N5CC(c6c(OC)ccnc6F)C5)N4C3=O)cc2c1)Oc1ccccc1 (stereo partly drawn) [Compound 980, propyl (((2-(((3S,6S,9aS)-3-(3-(2-fluoro-4-methoxypyridin-3-yl)azetidine-1-carbonyl)-5-oxooctahydro-1H-pyrrolo[1,2-a]azepin-6-yl)carbamoyl)benzo [b]thiophen-5-yl)methyl)(phenoxy)phosphoryl)-L-alaninate]	1000 to 3000 nM
C[C@H](NP(=O)(Oc1ccccc1)C(F)c1ccc2sc(C(=O)N[C@H]3CCC[C@H]4CC[C@@H](C(=O)N5CC(c6cnccc6F)C5)N4C3=O)cc2c1)C(=O)OCCC(F)(F)F (stereo partly drawn) [Compound 983, 3,3,3-trifluoropropyl ((fluoro(2-(((3S,6S,9aS)-3-(3-(4-fluoropyridin-3-yl)azetidine-1-carbonyl)-5-oxooctahydro-1H-pyrrolo[1,2-a]azepin-6-yl)carbamoyl)benzo [b]thiophen-5-yl)methyl)(phenoxy)phosphoryl)-L-alaninate]	< 100 nM
CCCOC(=O)[C@H](C)NP(=O)(Oc1ccccc1)C(F)c1ccc2sc(C(=O)N[C@H]3CCC[C@H]4CC[C@@H](C(=O)N5CC(c6cn(C)ccc6=O)C5)N4C3=O)cc2c1 (stereo partly drawn) [Compound 985, propyl ((fluoro(2-(((3S,6S,9aS)-3-(3-(1-methyl-4-oxo-1,4-dihydropyridin-3-yl)azetidine-1-carbonyl)-5-oxooctahydro-1H-pyrrolo[1,2-a]azepin-6-yl)carbamoyl)benzo [b]thiophen-5-yl)methyl)(phenoxy)phosphoryl)-L-alaninate]	> 3000 nM
CCCOC(=O)[C@H](C)NP(=O)(Oc1ccccc1)C(F)c1ccc2sc(C(=O)N[C@H]3CCC[C@H]4CC[C@@H](C(=O)N5CC(c6cc(F)ccc6F)C5)N4C3=O)cc2c1 (stereo partly drawn) [Compound 986, propyl (((2-(((3S,6S,9aS)-3-(3-(2,5-difluorophenyl)azetidine-1-carbonyl)-5-oxooctahydro-1H-pyrrolo[1,2-a]azepin-6-yl)carbamoyl)benzo [b]thiophen-5-yl)fluoromethyl) (phenoxy)phosphoryl)-L-alaninate]	1000 to 3000 nM

Reference: patent publication US20250215029A1 (Recludix Pharma, Inc., priority 2022, published 2025)
